Measured values as given in patent US20260092083A1, “VANCOMYCIN DERIVATIVES WITH SIDEROPHORE MODIFICATION AS NOVEL REPURPOSED ANTIBIOTICS TO COMBAT GRAM-NEGATIVE BACTERIAL INFECTION” (priority 2023, published 2026).
Converted amounts (≈) assume the structure as drawn.

What was measured:
Assay type in all cases: cell-based
[1] = test system: E. coli (wild-type) BW25113; assay: Broth microdilution MIC, E. coli wild-type; conditions: Escherichia coli, iron-depleted CAMHB, OD600 ≤0.15, read-out: MIC (μg/mL) Gram-negative EC
Procedure: (§1) The test compounds including vancomycin hydrochloride were supplied as a 6.4 mg/mL solution in 100% dimethyl sulfoxide (DMSO) aliquoted into individual wells of a 96-well plate (50 μL per well). […] Standardized inocula were added to the MIC test plates, which were incubated for the prescribed times at 35° C. The N. gonorrhoeae strain was incubated in an atmosphere containing 5% CO2.
(§2) The final optical density of each well at 600 nm was measured using a Tecan Spark plate reader. The compound concentration versus OD600 data were then curve fit using custom software. An MIC value was defined as the lowest compound concentration that led to an OD600 value≤0.15 for the E. coli, K. pneumoniae, P. aeruginosa, A. baumannii, or S. aureus strains. For the N. gonorrhoeae strain, an OD600 value≤0.19 was used as a cutoff to define an MIC value; this higher cut-off value was required because the N. gonorrhoeae MIC plates were covered with plastic seals that increased the background OD600 value.
(§3) JMI Laboratories followed current CLSI quality assurance practices when performing the susceptibility tests. MIC values were validated by concurrently testing the CLSI-recommended ATCC QC reference strains S. aureus ATCC 29213 and K. pneumoniae ATCC 700603. The inoculum density during susceptibility testing was monitored by bacterial colony counts. Where applicable, QC ranges for tested reference strains were those ranges approved or published by CLSI for testing in CAMHB. […] Importantly, the CLSI reference method for testing N. gonorrhoeae is the agar dilution MIC method, which was not used here. Thus, CLSI MIC QC ranges for N. gonorrhoeae could not be applied to the antimicrobials studied here.
(§4) Abbreviations: EC, E. coli (wild-type) BW25113; EC efflux^−, E. coli (tolC) JW5503-1; KPN, K. pneumoniae ATCC 700603; PSA, P. aeruginosa PAO1; PSA efflux^−, P. aeruginosa (multi-pump-gene mutant) PAM1626; ACB, A. baumannii JMI #1186154; GC, N. gonorrhoeae WHO-Z; SA, S. aureus ATCC 29213. Broth microdilution MIC values were measured in iron-depleted CAMHB for all strains except for GC, which was tested in fastidious broth.

[2] = test system: E. coli (tolC) JW5503-1; assay: Broth microdilution MIC, E. coli efflux-deficient (tolC); conditions: Escherichia coli, read-out: MIC (μg/mL) Gram-negative EC Efflux
Procedure: as §1, §2, §3, §4

[3] = test system: K. pneumoniae ATCC 700603; assay: Broth microdilution MIC, K. pneumoniae; conditions: Klebsiella pneumoniae, ATCC700603, read-out: MIC (μg/mL) Gram-negative KPN
Procedure: as §1, §2, §3, §4

[4] = test system: P. aeruginosa PAO1; assay: Broth microdilution MIC, P. aeruginosa; conditions: Pseudomonas aeruginosa, iron-depleted CAMHB, OD600 ≤0.15, read-out: MIC (μg/mL) Gram-negative PSA
Procedure: as §1, §2, §3, §4

[5] = test system: P. aeruginosa (multi-pump-gene mutant) PAM1626; assay: Broth microdilution MIC, P. aeruginosa efflux-deficient; conditions: Pseudomonas aeruginosa, read-out: MIC (μg/mL) Gram-negative PSA Efflux
Procedure: as §1, §2, §3, §4

[6] = test system: A. baumannii JMI #1186154; assay: Broth microdilution MIC, A. baumannii; conditions: Acinetobacter baumannii, iron-depleted CAMHB, OD600 ≤0.15, read-out: MIC (μg/mL) Gram-negative ACB
Procedure: as §1, §2, §3, §4

[7] = test system: N. gonorrhoeae WHO-Z; assay: Broth microdilution MIC, N. gonorrhoeae; conditions: Neisseria gonorrhoeae, read-out: MIC (μg/mL) Gram-negative GC
Procedure: as §1, §2, §3, §4

[8] = test system: S. aureus ATCC 29213; assay: Broth microdilution MIC, S. aureus; conditions: Staphylococcus aureus, ATCC29213, iron-depleted CAMHB, OD600 ≤0.15, read-out: MIC (μg/mL) Gram positive SA
Procedure: as §1, §2, §3, §4

Structure (SMILES)	MIC [1] [µg/mL]	MIC [2] [µg/mL]	MIC [3] [µg/mL]	MIC [4] [µg/mL]	MIC [5] [µg/mL]	MIC [6] [µg/mL]	MIC [7] [µg/mL]	MIC [8] [µg/mL]
CNC(CC(C)C)C(=O)NC1C(=O)NC(CC(N)=O)C(=O)NC2C(=O)NC3C(=O)NC(C(=O)N[C@H](C(=O)O)c4cc(O)c(CNCc5cn(CCCNC(=O)c6ccc(O)c(O)c6Cl)nn5)c(O)c4-c4cc3ccc4O)C(O)c3ccc(c(Cl)c3)Oc3cc2cc(c3OC2OC(CO)C(O)C(O)C2OC2CC(C)(N)C(O)C(C)O2)Oc2ccc(cc2Cl)C1O (stereo partly shown) [Compound 27]	16 (≈ 8.95 µM)	64 (≈ 35.8 µM)	> 64	> 64	> 64	16 (≈ 8.95 µM)	> 64	8 (≈ 4.48 µM)
CNC(CC(C)C)C(=O)NC1C(=O)NC(CC(N)=O)C(=O)NC2C(=O)NC3C(=O)NC(C(=O)N[C@H](C(=O)O)c4cc(O)cc(O)c4-c4cc3ccc4O)C(O)c3ccc(c(Cl)c3)Oc3cc2cc(c3OC2OC(CO)C(O)C(O)C2OC2CC(C)(NCCNC(=O)c3ccc(O)c(O)c3Cl)C(O)C(C)O2)Oc2ccc(cc2Cl)C1O (stereo partly shown) [Compound 28]	> 64	> 64	> 64	> 64	> 64	32 (≈ 19.2 µM)	> 64	4 (≈ 2.41 µM)
CC(C)C[C@H](C(=O)N[C@H]1C(=O)N[C@@H](CC(N)=O)C(=O)N[C@H]2C(=O)N[C@H]3C(=O)N[C@H](C(=O)N[C@H](C(=O)O)c4cc(O)cc(O)c4-c4cc3ccc4O)[C@H](O)c3ccc(c(Cl)c3)Oc3cc2cc(c3O[C@@H]2O[C@H](CO)C(O)C(O)[C@H]2O[C@H]2CC(C)(N)[C@H](O)[C@H](C)O2)Oc2ccc(cc2Cl)[C@H]1O)N(C)CCNC(=O)c1ccc(O)c(O)c1Cl (stereo partly shown) [Compound 30]	64 (≈ 38.5 µM)	> 64	> 64	> 64	> 64	32 (≈ 19.2 µM)	> 64	4 (≈ 2.41 µM)
CNC(CC(C)C)C(=O)NC1C(=O)NC(CC(N)=O)C(=O)NC2C(=O)NC3C(=O)NC(C(=O)N[C@H](C(=O)O)c4cc(O)cc(O)c4-c4cc3ccc4O)C(O)c3ccc(c(Cl)c3)Oc3cc2cc(c3OC2OC(CO)C(O)C(O)C2OC2CC(C)(NCCCc3cn(CCCNC(=O)c4ccc(O)c(O)c4Cl)nn3)C(O)C(C)O2)Oc2ccc(cc2Cl)C1O (stereo partly shown) [Compound 31]	> 64	32 (≈ 17.9 µM)	> 64	> 64	> 64	64 (≈ 35.8 µM)	> 64	8 (≈ 4.48 µM)
CC(C)CC(C(=O)NC1C(=O)NC(CC(N)=O)C(=O)NC2C(=O)NC3C(=O)NC(C(=O)N[C@H](C(=O)O)c4cc(O)cc(O)c4-c4cc3ccc4O)C(O)c3ccc(c(Cl)c3)Oc3cc2cc(c3OC2OC(CO)C(O)C(O)C2OC2CC(C)(N)C(O)C(C)O2)Oc2ccc(cc2Cl)C1O)N(C)CCCc1cn(CCCNC(=O)c2ccc(O)c(O)c2Cl)nn1 (stereo partly shown) [Compound 32]	> 64	> 64	> 64	> 64	> 64	32 (≈ 17.9 µM)	> 64	32 (≈ 17.9 µM)
